Laboratory results taken from patent publication US10266526B2, “Substituted 1,2,3-triazoles as SMYD inhibitors for treating cancer” (EPIZYME, INC., priority 2014, dated 2019).
Structures can show the parent of a compound that is named as a salt. Where two headings read alike, the source gives them in different places.

Molecular target: SMYD3 (Homo sapiens (Human), UniProt Q9H7B4)
Experiment: SMYD3 biochemical assay (SMYD3 enzyme assay on MEKK2 protein substrate, 3H-SAM scintillation proximity assay)
Excerpt: S-adenosylmethionine (SAM), S-adenosylhomocysteine (SAH), Tris, Tween20, dimethylsulfoxide (DMSO), bovine skin gelatin (BSG), and Tris(2-carboxyethyl)phosphine hydrochloride solution (TCEP) were purchased from Sigma-Aldrich at the highest level of purity possible. ^3H-SAM was purchase from American Radiolabeled Chemicals with a specific activity of 80 Ci/mmol. 384-well opaque white OptiPlates and SPA beads (Perkin Elmer, catalog # RPNQ0013) were purchased from PerkinElmer.
N-terminally GST-tagged MEKK2 (MAP3K2) protein corresponding to reference sequence AAF63496.3 was purchased from Life Technologies (catalog # PV4010). This protein was expressed in High Five insect cells and purified to >85% purity. Protein identity was confirmed by MS/MS analysis after proteolytic digestion. The protein sequence used was:
Full-length human SMYD3 isoform 1 (BAB86333) was inserted into a modified pET21b plasmid containing a His6 tag and TEV and SUMO cleavage sites.
E. coli (BL21 codonplus RIL strain, Stratagene) were transformed with plasmid pEPZ553 by mixing competent cells and plasmid DNA and incubating on ice for 30 minutes followed by heat shock at 42° C. for 1 minute and cooling on ice for 2 minutes. Transformed cells were grown and selected on LB agar with 100 μg/mL ampicillin and 17 μg/mL chloramphenicol at 37° C. overnight. A single clone was used to inoculate 200 mL of LB medium with 100 μg/mL ampicillin and 17 μg/mL chloramphenicol and incubated at 37° C. on an orbital shaker at 180 rpm. Once in log growth, the culture was diluted 1:100 into 2 L of LB medium and grown until OD600 was about 0.3 after which the culture was incubated at 15° C. and 160 rpm. Once OD600 reached about 0.4, IPTG was added to a final concentration of 0.1 mM and the cells were grown overnight at 15° C. and 160 rpm. Cells were harvested by centrifugation at 8000 rpm, for 4 minutes at 4° C. and stored at −80° C. for purification.
The column was washed with Buffer B (Buffer A plus 20 mM imidazole) and His-tagged SMYD3 was eluted with Buffer C (Buffer A plus 300 mM imidazole). The His tag, TEV and SUMO cleavage sites were removed generating native SMYD3 by addition of ULP1 protein at a ratio of 1:200 (ULP1:SMYD3). Imidazole was removed by dialysis overnight in Buffer A. The dialyzed solution was applied to a second Nickel column and the native SMYD3 protein was collected from the column flow-through. The flow-through was dialyzed in Buffer D (25 mM Tris, 5% glycerol, 5 mM β-mercaptoethanol, 50 mM NaCl, pH7.8) and ULP1 was removed using a Q sepharose fast flow column.
General Procedure for SMYD3 Enzyme Assays on MEKK2 Protein Substrate
The assays were all performed in a buffer consisting of 25 mM Tris-Cl pH 8.0, 1 mM TCEP, 0.005% BSG, and 0.005% Tween 20, prepared on the day of use. […] DMSO (1 ul) was added to Columns 11, 12, 23, 24, rows A-H for the maximum signal control and 1 ul of SAH, a known product and inhibitor of SMYD3, was added to columns 11, 12, 23, 24, rows I-P for the minimum signal control. A cocktail (40 ul) containing the SMYD3 enzyme was added by Multidrop Combi (Thermo-Fisher). The compounds were allowed to incubate with SMYD3 for 30 min at room temperature, then a cocktail (10 ul) containing SAM and MEKK2 was added to initiate the reaction (final volume=51 ul). […] The assays were stopped by the addition of non-radiolabeled SAM (10 ul) to a final concentration of 100 uM, which dilutes the ^3H-SAM to a level where its incorporation into MEKK2 is no longer detectable. Radiolabeled MEKK2 was detected using a scintillation proximity assay (SPA). 10 uL of a 10 mg/mL solution of SPA beads in 0.5 M citric acid was added and the plates centrifuged at 600 rpm for 1 min to precipitate the radiolabeled MEKK2 onto the SPA beads.

[1] = Table 1A, average of n = 1 to n = 50, read-out: SMYD3 Biochem IC50
[2] = read-out: SMYD3 Biochem IC50 (μM)*

Sequence of SMYD3 (Q9H7B4 whole entry): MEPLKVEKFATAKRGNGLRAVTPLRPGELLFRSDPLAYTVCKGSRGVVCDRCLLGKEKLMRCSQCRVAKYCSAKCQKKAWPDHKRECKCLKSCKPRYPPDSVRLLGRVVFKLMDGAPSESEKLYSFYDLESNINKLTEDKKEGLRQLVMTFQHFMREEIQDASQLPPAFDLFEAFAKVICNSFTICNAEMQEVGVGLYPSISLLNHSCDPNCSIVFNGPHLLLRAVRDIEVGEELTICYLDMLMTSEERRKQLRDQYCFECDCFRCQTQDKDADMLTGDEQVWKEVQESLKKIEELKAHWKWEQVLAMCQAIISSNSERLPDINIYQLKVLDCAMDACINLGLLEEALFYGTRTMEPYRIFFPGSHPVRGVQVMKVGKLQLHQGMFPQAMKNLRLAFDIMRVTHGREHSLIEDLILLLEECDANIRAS

| Compound | IC50 [1] [µM] | IC50 [2] [µM] |
| --- | --- | --- |
| C[C@@H]1C[C@@H](NC(=O)c2ccccc2)CCN1S(=O)(=O)CCCN (racemic) [compound 563, (±)-trans-N-(1-((3-aminopropyl)sulfonyl)-2-methylpiperidin-4-yl)benzamide] | > 10 | – |
| CCc1cccc(C(=O)N[C@@H]2CCN(S(=O)(=O)CCCN)[C@H](C)C2)c1 (racemic) [compound 569, (±)-cis-N-(1-((3-aminopropyl)sulfonyl)-2-methylpiperidin-4-yl)-3-ethylbenzamide] | 8.02 | – |
| CCc1cccc(C(=O)N[C@H]2CCN(S(=O)(=O)CCCN)[C@H](C)C2)c1 (racemic) [compound 573, (±)-trans-N-(1-((3-aminopropyl)sulfonyl)-2-methylpiperidin-4-yl)-3-ethylbenzamide] | > 10 | – |
| C[C@@H]1C[C@H](NC(=O)c2ccccc2)CCN1S(=O)(=O)CCCN (stereo in doubt) [compound 564, (±)-cis-N-(1-((3-aminopropyl)sulfonyl)-2-methylpiperidin-4-yl)benzamide] | > 10 | – |
| C[C@H]1C[C@@H](NC(=O)c2ccccc2)CCN1S(=O)(=O)CCCN (stereo in doubt) [compound 570, (±)-cis-N-(1-((3-aminopropyl)sulfonyl)-2-methylpiperidin-4-yl)benzamide] | > 10 | – |
| CC(NC(=O)c1ccc2c(c1)CC(=O)N2)C1CCN(C(=O)[C@H](C)N)CC1 (stereo partly drawn) [Cpd. No. 86, N-(1-(1-((S)-2-aminopropanoyl)piperidin-4-yl)ethyl)-2-oxoindoline-5-carboxamide Hydrochloride] | – | 1.43 |
| CC(NC(=O)c1ccc2[nH]c(=O)[nH]c2c1)C1CCN(C(=O)[C@H](C)N)CC1 (stereo partly drawn) [Cpd. No. 93, N-(1-(1-((S)-2-aminopropanoyl)piperidin-4-yl)ethyl)-2-oxo-2,3-dihydro-1H-benzo[d]imidazole-5-carboxamide] | – | 6.76 |
| CC(NC(=O)c1ccc2[nH]c(=O)oc2c1)C1CCN(C(=O)[C@H](C)N)CC1 (stereo partly drawn) [Cpd. No. 94, N-(1-(1-((S)-2-aminopropanoyl)piperidin-4-yl)ethyl)-2-oxo-2,3-dihydrobenzo[d]oxazole-6-carboxamide Hydrochloride] | – | 3.94 |
| O=C1Cc2cc(C(=O)NCC3CCNCC3)ccc2N1 [Cpd. No. 100, 2-oxo-N-(piperidin-4-ylmethyl)indoline-5-carboxamide Hydrochloride] | – | 20 |
| NCCCC(=O)N1CCC(NC(=O)c2ncn[nH]2)CC1 [Cpd. No. 560, N-(1-(4-aminobutanoyl)piperidin-4-yl)-1H-1,2,4-triazole-5-carboxamide] | > 10 | – |
| CC(=O)Nc1ccc(S(=O)(=O)N2CCC(NC(=O)c3cccnc3)CC2)cc1 [compound 3, N-(1-((4-acetamidophenyl)sulfonyl)piperidin-4-yl)nicotinamide] | – | > 100 |
| CC(=O)Nc1ccc(S(=O)(=O)N2CCC(NC(=O)c3ccncc3)CC2)cc1 [compound 4, N-(1-((4-acetamidophenyl)sulfonyl)piperidin-4-yl)isonicotinamide] | – | > 100 |
| CC(=O)Nc1ccc(S(=O)(=O)N2CCC(NC(=O)c3cnccn3)CC2)cc1 [compound 5, N-(1-((4-acetamidophenyl)sulfonyl)piperidin-4-yl)pyrazine-2-carboxamide] | – | > 100 |
| CC(=O)Nc1ccc(S(=O)(=O)N2CCC(NC(=O)c3cc[nH]n3)CC2)cc1 [compound 6, N-(1-((4-acetamidophenyl)sulfonyl)piperidin-4-yl)-1H-pyrazole-3-carboxamide] | – | > 100 |
| CC(=O)Nc1ccc(S(=O)(=O)N2CCC(NC(=O)c3ccnn3C)CC2)cc1 [compound 7, N-(1-((4-acetamidophenyl)sulfonyl)piperidin-4-yl)-1-methyl-1H-pyrazole-5-carboxamide] | – | > 100 |
| CC(=O)Nc1ccc(S(=O)(=O)N2CCC(NC(=O)c3cnn(C)c3)CC2)cc1 [compound 8, N-(1-((4-acetamidophenyl)sulfonyl)piperidin-4-yl)-1-methyl-1H-pyrazole-4-carboxamide] | – | > 100 |
| CC(=O)Nc1ccc(S(=O)(=O)N2CCC(NC(=O)c3cn(C)cn3)CC2)cc1 [compound 9, N-(1-((4-acetamidophenyl)sulfonyl)piperidin-4-yl)-1-methyl-1H-imidazole-4-carboxamide] | – | 60.5 |
| CC(=O)Nc1ccc(S(=O)(=O)N2CCC(NC(=O)c3cn(C4CC4)nn3)CC2)cc1 [compound 10, N-(1-((4-acetamidophenyl)sulfonyl)piperidin-4-yl)-1-cyclopropyl-1H-1,2,3-triazole-4-carboxamide] | – | 17 |
| CC(=O)Nc1ccc(S(=O)(=O)N2CCC(NC(=O)C3CCN(CC4CC4)CC3)CC2)cc1 [compound 12, N-(1-((4-acetamidophenyl)sulfonyl)piperidin-4-yl)-1-(cyclopropylmethyl)piperidine-4-carboxamide] | – | 45.9 |

Further lines, results first:

| IC50 [1] [µM] | IC50 [2] [µM] | Compound |
| --- | --- | --- |
| > 10 | – | C[C@@H]1C[C@@H](NC(=O)c2ccccc2)CCN1C(=O)C1CCC(N)CC1 (mixture of isomers) [compound 557, (±)-trans-N-(1-(4-aminocyclohexane-1-carbonyl)-2-methylpiperidin-4-yl)benzamide] |
| > 10 | – | C[C@@H]1C[C@H](NC(=O)c2ccccc2)CCN1C(=O)C1CCC(N)CC1 (mixture of isomers) [compound 558, (±)-cis-N-(1-(4-aminocyclohexane-1-carbonyl)-2-methylpiperidin-4-yl)benzamide] |
| > 10 | – | C[C@H]1C[C@@H](NC(=O)c2ccccc2)CCN1C(=O)C1CCC(N)CC1 (mixture of isomers) [compound 567, (±)-cis-N-(1-(4-aminocyclohexane-1-carbonyl)-2-methylpiperidin-4-yl)benzamide] |
| > 10 | – | C[C@H]1C[C@H](NC(=O)c2ccccc2)CCN1C(=O)C1CCC(N)CC1 (mixture of isomers) [compound 571, (±)-trans-N-(1-(4-aminocyclohexane-1-carbonyl)-2-methylpiperidin-4-yl)benzamide] |
| – | 14 | Cc1cc(C(=O)N[C@H]2CC[C@H](N)CC2)n(Cc2ccccc2)n1 [Cpd. No. 29, N-((1r,4r)-4-aminocyclohexyl)-1-benzyl-3-methyl-1H-pyrazole-5-carboxamide Hydrochloride] |
| – | 15.4 | N[C@H]1CC[C@H](NC(=O)c2cn(C3CC3)nn2)CC1 [compound 11, N-((1r,4r)-4-aminocyclohexyl)-1-cyclopropyl-1H-1,2,3-triazole-4-carboxamide] |
| – | 112 | CCn1ccc(C(=O)N[C@H]2CC[C@H](N)CC2)n1 [compound 13, N-((1r,4r)-4-aminocyclohexyl)-1-ethyl-1H-pyrazole-3-carboxamide] |
| – | 104 | CCc1cc(C(=O)N[C@H]2CC[C@H](N)CC2)on1 [compound 14, N-((1r,4r)-4-aminocyclohexyl)-3-ethylisoxazole-5-carboxamide] |
| – | 56.6 | CCn1cnc(C(=O)N[C@H]2CC[C@H](N)CC2)c1 [compound 15, N-((1r,4r)-4-aminocyclohexyl)-1-ethyl-1H-imidazole-4-carboxamide] |
| – | 128 | CCc1nc(C(=O)N[C@H]2CC[C@H](N)CC2)co1 [compound 16, N-((1r,4r)-4-aminocyclohexyl)-2-ethyloxazole-4-carboxamide] |
| – | 13.5 | CCc1cc(C(=O)N[C@H]2CC[C@H](N)CC2)ns1 [compound 17, N-((1r,4r)-4-aminocyclohexyl)-5-ethylisothiazole-3-carboxamide] |
| – | 125 | CCc1ccc(C(=O)N[C@H]2CC[C@H](N)CC2)cc1 [compound 18, N-((1r,4r)-4-aminocyclohexyl)-4-ethylbenzamide] |
